These results are taken from the NIST ThermoML archive (doi:10.1016/j.fluid.2006.11.004).

The data set can be described thus: xn = mol fraction of the nth substance listed. Conditions: 273.15 K, 111 kPa, Fluid (supercritical or subcritical phases), Flux Response Technology (based on capillary viscometry).

Numbers after ± are expanded uncertainties.

With `O=C=O` [carbon dioxide] + FC(F)(Cl)Cl, the excess molar volume (x1 = 1) is listed as 0 ± 1e-07 m3/mol.
For the molecule `FC(F)(Cl)Cl` [dichlorodifluoromethane] + O=C=O, the excess molar volume (x2 = 0) is on record as 0 ± 1e-07 m3/mol; the excess molar volume (x2 = 0.0001) was 0 ± 1e-07 m3/mol; the excess molar volume (x2 = 0.113) is given as 3.11e-05 ± 4.4e-06 m3/mol; the excess molar volume (x2 = 0.236) worked out at 4.65e-05 ± 6.5e-06 m3/mol; the excess molar volume (x2 = 0.362) was found to be 5.16e-05 ± 7.2e-06 m3/mol; the excess molar volume (x2 = 0.48) is listed as 5.54e-05 ± 7.8e-06 m3/mol. For the same molecule, the excess molar volume runs as follows: (x2 = 0.482) 4.91e-05 ± 6.9e-06 m3/mol; (x2 = 0.56) 5.6e-05 ± 7.8e-06 m3/mol; (x2 = 0.561) 5.24e-05 ± 7.3e-06 m3/mol; (x2 = 0.6) 5.03e-05 ± 7e-06 m3/mol; (x2 = 0.715) 5.03e-05 ± 7e-06 m3/mol; (x2 = 0.833) 3.21e-05 ± 4.5e-06 m3/mol.
